In BigSolDB 2.1:

CN(C/C=C/C#CC(C)(C)C)Cc1cccc2ccccc12.Cl
solubility (mole fraction) (in ethanol, 278.15 K): 0.0187
solubility (mole fraction) (in ethanol, 280.65 K): 0.0197
solubility (mole fraction) (in ethanol, 283.15 K): 0.0207
solubility (mole fraction) (in ethanol, 285.65 K): 0.0217
solubility (mole fraction) (in ethanol, 288.15 K): 0.0229
solubility (mole fraction) (in ethanol, 290.65 K): 0.0241
solubility (mole fraction) (in ethanol, 293.15 K): 0.0254
solubility (mole fraction) (in ethanol, 295.65 K): 0.0266
solubility (mole fraction) (in ethanol, 298.15 K): 0.0279
solubility (mole fraction) (in ethanol, 300.65 K): 0.0293
solubility (mole fraction) (in ethanol, 303.15 K): 0.0309
solubility (mole fraction) (in ethanol, 305.65 K): 0.0326
solubility (mole fraction) (in ethanol, 308.15 K): 0.0342
solubility (mole fraction) (in ethanol, 310.65 K): 0.036
solubility (mole fraction) (in ethanol, 313.15 K): 0.0379
solubility (mole fraction) (in ethyl acetate, 278.15 K): 0.0022
solubility (mole fraction) (in ethyl acetate, 280.65 K): 0.00255
solubility (mole fraction) (in ethyl acetate, 283.15 K): 0.00304
solubility (mole fraction) (in ethyl acetate, 285.65 K): 0.0036
solubility (mole fraction) (in ethyl acetate, 288.15 K): 0.00417
solubility (mole fraction) (in ethyl acetate, 290.65 K): 0.00482
solubility (mole fraction) (in ethyl acetate, 293.15 K): 0.00557
solubility (mole fraction) (in ethyl acetate, 295.65 K): 0.00626
solubility (mole fraction) (in ethyl acetate, 298.15 K): 0.00715
solubility (mole fraction) (in ethyl acetate, 300.65 K): 0.00821
solubility (mole fraction) (in ethyl acetate, 303.15 K): 0.00919
solubility (mole fraction) (in ethyl acetate, 305.65 K): 0.0105
solubility (mole fraction) (in ethyl acetate, 308.15 K): 0.0119
solubility (mole fraction) (in ethyl acetate, 310.65 K): 0.0133
solubility (mole fraction) (in ethyl acetate, 313.15 K): 0.015
solubility (mole fraction) (in methanol, 278.15 K): 0.0398
solubility (mole fraction) (in methanol, 280.65 K): 0.0411
solubility (mole fraction) (in methanol, 283.15 K): 0.0424
solubility (mole fraction) (in methanol, 285.65 K): 0.0439
solubility (mole fraction) (in methanol, 288.15 K): 0.0453
solubility (mole fraction) (in methanol, 290.65 K): 0.047
solubility (mole fraction) (in methanol, 293.15 K): 0.0486
solubility (mole fraction) (in methanol, 295.65 K): 0.0502
solubility (mole fraction) (in methanol, 298.15 K): 0.0518
solubility (mole fraction) (in methanol, 300.65 K): 0.0536
solubility (mole fraction) (in methanol, 303.15 K): 0.0554
solubility (mole fraction) (in methanol, 305.65 K): 0.0572
solubility (mole fraction) (in methanol, 308.15 K): 0.059
solubility (mole fraction) (in methanol, 310.65 K): 0.061
solubility (mole fraction) (in methanol, 313.15 K): 0.063
solubility (mole fraction) (in n-propanol, 278.15 K): 0.0187
solubility (mole fraction) (in n-propanol, 280.65 K): 0.0193
solubility (mole fraction) (in n-propanol, 283.15 K): 0.02
solubility (mole fraction) (in n-propanol, 285.65 K): 0.0206
solubility (mole fraction) (in n-propanol, 288.15 K): 0.0214
solubility (mole fraction) (in n-propanol, 290.65 K): 0.0221
solubility (mole fraction) (in n-propanol, 293.15 K): 0.0228
solubility (mole fraction) (in n-propanol, 295.65 K): 0.0237
solubility (mole fraction) (in n-propanol, 298.15 K): 0.0245
solubility (mole fraction) (in n-propanol, 300.65 K): 0.0254
solubility (mole fraction) (in n-propanol, 303.15 K): 0.0262
solubility (mole fraction) (in n-propanol, 305.65 K): 0.0271
solubility (mole fraction) (in n-propanol, 308.15 K): 0.028
solubility (mole fraction) (in n-propanol, 310.65 K): 0.0291
solubility (mole fraction) (in n-propanol, 313.15 K): 0.0301
